# Active and inactive are the calls of the source. The calls are words filed in the database; no cut-off is given here.
# What was measured:
# [1] = target: T1, Protein cereblon/Androgen receptor (Homo sapiens, UniProt P10275+Q96SW2); assay: PROTAC activity at full length Androgen receptor/CRBN in human LNCaP cells assessed as reduction in full length androgen receptor level incubated for 24 hrs by Western blot analysis; format: cell-based
# [2] = tested on: LNCaP; assay: PROTAC activity at AR-V7/CRBN in human LNCaP cells assessed as reduction in AR-V7 level incubated for 24 hrs by Western blot analysis; format: cell-based; conditions: dose <= 5.0 µM
# [3] = tested on: Protein cereblon/Androgen receptor (Homo sapiens), P10275+Q96SW2 [UNDEFINED MUTATION]; assay: PROTAC activity at AR-V7/CRBN in human 22Rv1 cells assessed as reduction in AR-V7 level at 1 uM by Western blot analysis; format: cell-based; conditions: CWR22R, time 6.0 hrs
# [4] = target: T1, Protein cereblon/Androgen receptor; assay: PROTAC activity at full length Androgen receptor/CRBN in human 22Rv1 cells assessed as reduction in full length androgen receptor level at 100 nM incubated for 24 hrs by immunofluorescence analysis; format: cell-based
# Target sequence in this assay (P10275 whole entry, looked up): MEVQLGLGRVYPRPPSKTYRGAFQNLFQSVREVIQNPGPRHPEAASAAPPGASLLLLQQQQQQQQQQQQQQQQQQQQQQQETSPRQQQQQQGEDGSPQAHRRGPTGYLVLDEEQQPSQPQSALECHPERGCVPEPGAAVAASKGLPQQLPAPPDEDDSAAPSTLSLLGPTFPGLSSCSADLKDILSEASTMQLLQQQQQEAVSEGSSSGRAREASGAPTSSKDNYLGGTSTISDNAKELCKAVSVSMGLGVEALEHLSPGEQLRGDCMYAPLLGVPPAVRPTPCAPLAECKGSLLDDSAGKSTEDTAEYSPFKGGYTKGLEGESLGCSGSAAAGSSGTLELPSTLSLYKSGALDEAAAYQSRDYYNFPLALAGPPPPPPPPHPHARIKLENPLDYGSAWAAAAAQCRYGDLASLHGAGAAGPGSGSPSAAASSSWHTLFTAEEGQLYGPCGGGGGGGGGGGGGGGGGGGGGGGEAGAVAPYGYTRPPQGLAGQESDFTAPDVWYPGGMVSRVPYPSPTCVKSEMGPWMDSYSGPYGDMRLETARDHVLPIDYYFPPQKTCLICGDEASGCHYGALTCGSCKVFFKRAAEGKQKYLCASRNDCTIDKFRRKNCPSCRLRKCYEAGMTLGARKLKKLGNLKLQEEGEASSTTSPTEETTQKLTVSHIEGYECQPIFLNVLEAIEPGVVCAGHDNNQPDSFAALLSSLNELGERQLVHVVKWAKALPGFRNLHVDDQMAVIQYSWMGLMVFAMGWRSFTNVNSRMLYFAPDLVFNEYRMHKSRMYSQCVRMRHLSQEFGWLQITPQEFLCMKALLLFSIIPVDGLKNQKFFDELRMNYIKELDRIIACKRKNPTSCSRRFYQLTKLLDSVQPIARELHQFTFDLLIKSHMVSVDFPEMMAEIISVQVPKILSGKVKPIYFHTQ
# Target sequence in this assay (Q96SW2 whole entry, looked up): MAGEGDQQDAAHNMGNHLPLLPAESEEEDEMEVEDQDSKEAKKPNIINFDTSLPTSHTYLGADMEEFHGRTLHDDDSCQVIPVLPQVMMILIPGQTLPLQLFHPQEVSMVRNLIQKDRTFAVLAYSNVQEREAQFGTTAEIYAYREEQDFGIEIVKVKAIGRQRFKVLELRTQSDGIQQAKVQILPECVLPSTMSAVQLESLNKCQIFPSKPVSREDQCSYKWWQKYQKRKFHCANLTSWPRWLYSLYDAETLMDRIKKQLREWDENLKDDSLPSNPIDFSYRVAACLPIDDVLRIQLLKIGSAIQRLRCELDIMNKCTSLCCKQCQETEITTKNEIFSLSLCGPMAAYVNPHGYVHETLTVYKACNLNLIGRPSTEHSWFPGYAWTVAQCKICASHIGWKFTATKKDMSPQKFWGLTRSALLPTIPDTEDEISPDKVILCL
# [5] = tested on: CWR22R; assay: Downregulation of PSA mRNA level in human 22Rv1 cells incubated for 24 hrs by qRT-PCR analysis; format: functional, cell-based; conditions: dose 100-500 nM
# [6] = tested on: CWR22R; assay: Downregulation of KLK2 mRNA level in human 22Rv1 cells incubated for 24 hrs by qRT-PCR analysis; format: functional, cell-based; conditions: dose 100-500 nM
# [7] = tested on: CWR22R; assay: Downregulation of UBE2C mRNA level in human 22Rv1 cells incubated for 24 hrs by qRT-PCR analysis; format: functional, cell-based; conditions: dose 100-500 nM
# [8] = target: T1, Protein cereblon/Androgen receptor; assay: PROTAC activity at full length Androgen receptor/CRBN in human 22Rv1 cells assessed as induction of full length Androgen receptor degradation at 0.1 uM incubated for 24 hrs in presence of CHX by Western blot analysis; format: cell-based
# Target sequence in this assay (P10275 whole entry, looked up): as the sequence (P10275 whole entry, looked up) above
# Target sequence in this assay (Q96SW2 whole entry, looked up): as the sequence (Q96SW2 whole entry, looked up) above
# [9] = target: T1, Protein cereblon/Androgen receptor; assay: PROTAC activity at full length Androgen receptor/CRBN in human 22Rv1 cells assessed as induction of full length androgen receptor degradation at 100 nM incubated for 12 hrs in presence of Thalidomide by Western blot analysis; format: cell-based
# Target sequence in this assay (P10275 whole entry, looked up): as the sequence (P10275 whole entry, looked up) above
# Target sequence in this assay (Q96SW2 whole entry, looked up): as the sequence (Q96SW2 whole entry, looked up) above
# [10] = target: T1, Protein cereblon/Androgen receptor; assay: PROTAC activity at full length Androgen receptor/CRBN in human 22Rv1 cells assessed as induction of full length androgen receptor degradation at 100 nM incubated for 12 hrs in presence of MLN4924 by Western blot analysis; format: cell-based
# Target sequence in this assay (P10275 whole entry, looked up): as the sequence (P10275 whole entry, looked up) above
# Target sequence in this assay (Q96SW2 whole entry, looked up): as the sequence (Q96SW2 whole entry, looked up) above
# [11] = target: T1, Protein cereblon/Androgen receptor; assay: PROTAC activity at full length Androgen receptor/CRBN in human 22Rv1 cells assessed as induction of full length androgen receptor degradation at 100 nM incubated for 12 hrs in presence of MG132 by Western blot analysis; format: cell-based
# Target sequence in this assay (P10275 whole entry, looked up): as the sequence (P10275 whole entry, looked up) above
# Target sequence in this assay (Q96SW2 whole entry, looked up): as the sequence (Q96SW2 whole entry, looked up) above
# [12] = tested on: LNCaP; assay: Antiproliferative activity against human LNCaP cells assessed as cell viability incubated for 4 days by CCK-8 assay; format: functional, cell-based; conditions: 96 h
# [13] = tested on: DU-145; assay: Antiproliferative activity against human DU-145 cells assessed as cell viability incubated for 4 days by CCK-8 assay; format: functional, cell-based; conditions: DU-145, 96 h
# [14] = Antiproliferative activity against human RWPE-1 cells assessed as cell viability incubated for 4 days by CCK-8 assay; format: toxicity, cell-based
# [15] = Antiproliferative activity against human MCF-10A cells assessed as cell viability incubated for 4 days by CCK-8 assay; format: toxicity, cell-based
# [16] = tested on: CWR22R; assay: Induction of apoptosis in human 22Rv1 cells assessed as viable cells at 100 nM incubated for 48 hrs by Annexin V/FITC staining based flow cytometry analysis (reference value: 94.49%); format: functional; conditions: read-out: Activity
# [17] = tested on: CWR22R; assay: Induction of apoptosis in human 22Rv1 cells assessed as early apoptotic cells at 100 nM incubated for 48 hrs by Annexin V/FITC staining based flow cytometry analysis (reference value: 2.08 %); format: functional
# [18] = tested on: CWR22R; assay: Induction of apoptosis in human 22Rv1 cells assessed as late apoptotic cells at 100 nM incubated for 48 hrs by Annexin V/FITC staining based flow cytometry analysis (reference value: 1.12 %); format: functional
# [19] = tested on: CWR22R; assay: Induction of apoptosis in human 22Rv1 cells assessed as viable cells at 500 nM incubated for 48 hrs by Annexin V/FITC staining based flow cytometry analysis (reference value: 94.49%); format: functional; conditions: read-out: Activity
# [20] = tested on: CWR22R; assay: Induction of apoptosis in human 22Rv1 cells assessed as late apoptotic cells at 500 nM incubated for 48 hrs by Annexin V/FITC staining based flow cytometry analysis (reference value: 1.12 %); format: functional
# [21] = tested on: CWR22R; assay: Induction of apoptosis in human 22Rv1 cells assessed as necrotic cells at 500 nM incubated for 48 hrs by Annexin V/FITC staining based flow cytometry analysis (reference value: 2.31 %); format: functional
# [22] = tested on: CWR22R; assay: Induction of cell cycle arrest in human 22Rv1 cells assessed as accumulation of cells at G0/G1 phase at 100 nM incubated for 24 hrs by PI staining based flow cytometry analysis (reference value: 62.66%); format: functional
# [23] = tested on: CWR22R; assay: Induction of cell cycle arrest in human 22Rv1 cells assessed as accumulation of cells at G2/M phase at 100 nM incubated for 24 hrs by PI staining based flow cytometry analysis (reference value: 8.61%); format: functional
# [24] = tested on: CWR22R; assay: Induction of cell cycle arrest in human 22Rv1 cells assessed as accumulation of cells at G2/M phase at 500 nM incubated for 24 hrs by PI staining based flow cytometry analysis (reference value: 8.61%); format: functional
# [25] = Metabolic stability in mouse liver microsome assessed as intrinsic clearance measured upto 45 mins by LC/MS analysis; format: ADME; conditions: liver microsomes, read-out: CLH
# [26] = Metabolic stability in rat liver microsome assessed as intrinsic clearance measured upto 45 mins by LC/MS analysis; format: ADME; conditions: liver microsomes, read-out: CLH
# [27] = Metabolic stability in rat liver microsome assessed as half life measured upto 45 mins by LC/MS analysis; format: ADME; conditions: liver microsomes
# [28] = Metabolic stability in human liver microsome assessed as intrinsic clearance measured upto 45 mins by LC/MS analysis; format: ADME; conditions: liver microsomes, read-out: CLH
# [29] = Tmax in Sprague-Dawley rat 2 mg/kg, iv by LC-MS/MS analysis; format: ADME, organism-based; conditions: in vivo
# [30] = Cmax in Sprague-Dawley rat 2 mg/kg, iv by LC-MS/MS analysis; format: ADME, organism-based; conditions: in vivo
# [31] = MRT (0 to infinity) in Sprague-Dawley rat 2 mg/kg, iv by LC-MS/MS analysis; format: ADME, organism-based; conditions: in vivo
# [32] = Volume of distribution at steady state in Sprague-Dawley rat 2 mg/kg, iv by LC-MS/MS analysis; format: ADME, organism-based; conditions: in vivo, read-out: Vdss
# [33] = Clearance in Sprague-Dawley rat 2 mg/kg, iv by LC-MS/MS analysis; format: ADME, organism-based; conditions: in vivo
# [34] = target: hERG (Homo sapiens, UniProt Q12809); assay: Inhibition of hERG at 10 uM relative to control; format: toxicity
# [35] = tested on: CWR22R; assay: Antitumor activity against human 22Rv1 cells xenografted in BALB/c nude mouse assessed as suppression of tumor growth at 10 mg/kg, iv administered once daily for 21 days; format: functional, organism-based; conditions: time 21.0 day
# [36] = Toxicity in BALB/c mouse assessed as spleen damage at 10 mg/kg, iv administered once daily for 21 days by H and E staining based analysis; format: organism-based; conditions: in vivo, 504 h, time 21 day
# [37] = Toxicity in BALB/c mouse assessed as lung damage at 10 mg/kg, iv administered once daily for 21 days by H and E staining based analysis; format: organism-based; conditions: in vivo, 504 h, time 21 day
# [38] = Toxicity in BALB/c mouse assessed as kidney damage at 10 mg/kg, iv administered once daily for 21 days by H and E staining based analysis; format: organism-based; conditions: in vivo, 504 h, time 21 day
# Protein cereblon/Androgen receptor (Homo sapiens), P10275+Q96SW2 [UNDEFINED MUTATION], sequence (P10275 whole entry, looked up, change not shown): as the sequence (P10275 whole entry, looked up) above
# Protein cereblon/Androgen receptor (Homo sapiens), P10275+Q96SW2 [UNDEFINED MUTATION], sequence (Q96SW2 whole entry, looked up, change not shown): as the sequence (Q96SW2 whole entry, looked up) above
# hERG, sequence (Q12809 whole entry): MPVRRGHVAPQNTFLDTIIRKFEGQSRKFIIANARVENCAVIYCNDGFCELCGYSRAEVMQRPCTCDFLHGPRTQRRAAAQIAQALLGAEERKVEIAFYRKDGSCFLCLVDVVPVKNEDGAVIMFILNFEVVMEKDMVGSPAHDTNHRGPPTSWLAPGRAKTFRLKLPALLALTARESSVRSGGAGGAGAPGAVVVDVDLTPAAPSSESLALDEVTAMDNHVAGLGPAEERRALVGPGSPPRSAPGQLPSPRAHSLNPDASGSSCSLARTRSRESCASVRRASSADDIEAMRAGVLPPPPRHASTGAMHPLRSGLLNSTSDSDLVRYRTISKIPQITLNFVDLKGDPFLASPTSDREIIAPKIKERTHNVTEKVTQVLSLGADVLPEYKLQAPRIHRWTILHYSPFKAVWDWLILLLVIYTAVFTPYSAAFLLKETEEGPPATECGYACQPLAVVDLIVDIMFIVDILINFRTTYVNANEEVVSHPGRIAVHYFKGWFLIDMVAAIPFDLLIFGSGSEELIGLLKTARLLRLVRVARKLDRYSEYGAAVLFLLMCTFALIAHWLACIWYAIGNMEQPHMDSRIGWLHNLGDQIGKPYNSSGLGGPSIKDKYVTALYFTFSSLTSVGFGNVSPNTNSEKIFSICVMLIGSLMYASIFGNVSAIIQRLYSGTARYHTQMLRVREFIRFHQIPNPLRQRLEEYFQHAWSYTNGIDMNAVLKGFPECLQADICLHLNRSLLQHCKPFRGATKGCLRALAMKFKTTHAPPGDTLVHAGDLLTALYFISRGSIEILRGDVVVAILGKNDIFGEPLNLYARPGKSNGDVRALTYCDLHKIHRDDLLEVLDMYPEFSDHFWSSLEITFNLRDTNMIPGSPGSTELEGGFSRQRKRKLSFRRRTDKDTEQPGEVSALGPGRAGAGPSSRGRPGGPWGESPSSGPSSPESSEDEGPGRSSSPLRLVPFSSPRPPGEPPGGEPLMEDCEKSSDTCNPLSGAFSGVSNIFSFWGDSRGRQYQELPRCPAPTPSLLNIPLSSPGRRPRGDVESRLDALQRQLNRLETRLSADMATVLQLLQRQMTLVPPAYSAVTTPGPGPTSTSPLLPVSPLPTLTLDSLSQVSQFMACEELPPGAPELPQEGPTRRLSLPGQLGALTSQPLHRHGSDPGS
smiles,measurement,setting,value
CC(C)(c1ccc(OCCNc2cccc3c2C(=O)N(C2CCC(=O)NC2=O)C3=O)cc1)c1ccc(OCc2cccc(N3CCOCC3)n2)cc1 (centres undefined),DC50,[1],180 nM
same,Activity,[1]; dose <= 5.0 µM,Dose-dependent-effect
same,Activity,[2],Dose-dependent-effect
same,Activity,[3],Time-dependent-effect
same,Activity,[4],Active
same,Activity,[5],Dose-dependent-effect
same,Activity,[6],Dose-dependent-effect
same,Activity,[7],Dose-dependent-effect
same,Activity,[8],Active
same,Activity,[9],Active
same,Activity,[10],Active
same,Activity,[11],Active
same,IC50,[12],176 nM
same,IC50,[13],> 80000 nM
same,IC50 at 4 days,[14],> 80000 nM
same,IC50 at 4 days,[15],> 80000 nM
same,viability at 0.1 µM,[16],71%
same,Activity,[17],14.57%
same,Activity,[18],12.29%
same,viability at 0.5 µM,[19],65.1%
same,Activity,[20],15.59%
same,Activity,[21],2.4%
same,Activity,[22],41.16%
same,Activity,[23],15.45%
same,Activity,[24],21.54%
same,CLint scaled,[25],296 mL/min/kg
same,CLint scaled,[26],40.8 mL/min/kg
same,half-life,[27],61.1 min
same,CLint scaled,[28],43.1 mL/min/kg
same,Tmax,[29],4.98 min
same,Cmax,[30],6440 ng/mL
same,MRT inf,[31],37.2 min
same,Vd,[32],0.571 L/kg
same,clearance,[33],15.1 mL/min/kg
same,inhibition at 10 µM,[34],< 40%
same,Activity,[35],Active
same,Activity,[36],Non-toxic
same,Activity,[37],Non-toxic
same,Activity,[38],Non-toxic

# Reference: ChEMBL document CHEMBL6153032, “Discovery of a highly potent, N-terminal domain-targeting degrader of AR-FL/AR-V7 for the treatment of prostate cancer” (Eur J Med Chem, 2025)
